According to patent US9169254B2, “Spiroimidazolone derivative” (Chugai Seiyaku Kabushiki Kaisha, priority 2009, dated 2015):

Target: T1, human PTH1 receptor (Homo sapiens, UniProt Q03431)
T1 sequence (Q03431 27-593): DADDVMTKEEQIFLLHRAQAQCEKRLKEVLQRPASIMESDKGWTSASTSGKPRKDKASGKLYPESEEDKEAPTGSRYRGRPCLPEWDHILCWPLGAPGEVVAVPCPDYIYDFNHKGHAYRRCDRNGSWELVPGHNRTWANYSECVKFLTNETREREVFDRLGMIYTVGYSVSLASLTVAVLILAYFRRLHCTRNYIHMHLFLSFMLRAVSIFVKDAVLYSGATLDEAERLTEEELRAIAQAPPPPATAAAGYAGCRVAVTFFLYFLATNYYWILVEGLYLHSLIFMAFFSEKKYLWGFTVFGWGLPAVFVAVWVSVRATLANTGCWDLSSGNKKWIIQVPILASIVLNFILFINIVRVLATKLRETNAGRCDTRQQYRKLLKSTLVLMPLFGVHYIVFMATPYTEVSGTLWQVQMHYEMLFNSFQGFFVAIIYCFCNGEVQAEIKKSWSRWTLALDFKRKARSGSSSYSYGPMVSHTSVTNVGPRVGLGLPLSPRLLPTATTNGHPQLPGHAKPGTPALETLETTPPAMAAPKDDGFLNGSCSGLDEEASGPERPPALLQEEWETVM
Test: In vitro cAMP signal activity in HKRK-B7 cells (LLC-PK1 cells overexpressing the human PTH1 receptor)
Format: cell-based
Settings: HKRK-B7 cells; compound at 1×10^−3 M; cAMP produced as percentage of that produced by hPTH(1-34) at 100 nM

| SMILES | cAMP production activity (%) |
| --- | --- |
| CCc1cccc(NS(=O)(=O)N2CCC3(CC2)N=C(C2CCCCC2)NC3=O)c1 [Compound 177, 2-Cyclohexyl-4-oxo-1,3,8-triaza-spiro[4.5]dec-1-ene-8-sulfonic (3-ethylphenyl)amide] | 28 |
| COC(=O)CNc1ccc(/C=C/S(=O)(=O)N2CCC3(CC2)N=C(C2CCCCC2)NC3=O)c(C(F)(F)F)c1 [Compound 493, {4-[(E)-2-(2-cyclohexyl-4-oxo-1,3,8-triaza-spiro[4.5]dec-1-ene-8-sulfonyl)-vinyl]-3-trifluoromethyl-phenylamino}-acetic acid methyl ester] | 50 |
| Cc1cc(N2C(=O)CC[C@@H]2CO)ccc1CCS(=O)(=O)N1CCC2(CC1)N=C(c1cccc(C(F)(F)F)c1)NC2=O [Compound 268, 8-{2-[4-((R)-2-Hydroxymethyl-5-oxo-pyrrolidin-1-yl)-2-methyl-phenyl]-ethanesulfonyl}-2-(3-trifluoromethyl-phenyl)-1,3,8-triaza-spiro[4.5]dec-1-en-4-one] | 99 |
| Cc1cc(C(=O)N(C)CCCO)cc(C)c1/C=C/S(=O)(=O)N1CCC2(CC1)N=C(c1cccc(C(F)(F)F)c1)NC2=O [Compound 389, N-(3-hydroxy-propyl)-3,5,N-trimethyl-4-{(E)-2-[4-oxo-2-(3-trifluoromethyl-phenyl)-1,3,8-triaza-spiro[4.5]dec-1-ene-8-sulfonyl]-vinyl}-benzamide] | 75 |
| C=CCCCCC(=O)N(C)c1cc(C)c(CCS(=O)(=O)N2CCC3(CC2)N=C(CCCCC=C)NC3=O)c(C)c1 [Compound 1446, Hept-6-enoic acid {4-[2-(2-hex-5-enyl-4-oxo-1,3,8-triaza-spiro[4.5]dec-1-ene-8-sulfonyl)-ethyl]-3,5-dimethyl-phenyl}-methyl-amide] | 88 |
| Cc1cc(C(=O)N(C)C)ccc1CCS(=O)(=O)N1CCC2(CC1)N=C(c1ccc3ncsc3c1)NC2=O [Compound 143, 4-[2-(2-benzothiazol-6-yl-4-oxo-1,3,8-triaza-spiro[4.5]dec-1-ene-8-sulfonyl)-ethyl]-3,N,N-trimethyl-benzamide] | 4.5 |
| Cc1cc(C(=O)N2CCC(O)(CF)CC2)cc(C)c1CCS(=O)(=O)N1CCC2(CC1)N=C(c1ccc(C(F)(F)F)c(Cl)c1)NC2=O [Compound 1278, 2-(3-chloro-4-trifluoromethyl-phenyl)-8-{2-[4-(4-fluoromethyl-4-hydroxy-piperidine-1-carbonyl)-2,6-dimethyl-phenyl]-ethanesulfonyl}-1,3,8-triaza-spiro[4.5]dec-1-en-4-one] | 95 |
| CC(=O)N(CC1(C)COC1)c1cc(C)c(/C=C/S(=O)(=O)N2CCC3(CC2)N=C(C2CCCCC2)NC3=O)c(C)c1 [Compound 574, N-{4-[(E)-2-(2-cyclohexyl-4-oxo-1,3,8-triaza-spiro[4.5]dec-1-ene-8-sulfonyl)-vinyl]-3,5-dimethyl-phenyl}-N-(3-methyl-oxetan-3-ylmethyl)-acetamide] | 42 |
| CNC(=O)N(C)c1cc(C)c(/C=C/S(=O)(=O)N2CCC3(CC2)N=C(c2cccc(OC(F)(F)F)c2)NC3=O)c(C)c1 [Compound 1014, 1-(3,5-dimethyl-4-{(E)-2-[4-oxo-2-(3-trifluoromethoxy-phenyl)-1,3,8-triaza-spiro[4.5]dec-1-ene-8-sulfonyl]-vinyl}-phenyl)-1,3-dimethyl-urea] | 84 |
| Cc1cc(N(C)C(N)=O)cc(C)c1CCS(=O)(=O)N1CCC2(CC1)N=C(CCCCCCCCCCCCCC(=O)O)NC2=O [Compound 1350, 14-(8-{2-[2,6-dimethyl-4-(1-methyl-ureido)-phenyl]-ethanesulfonyl}-4-oxo-1,3,8-triaza-spiro[4.5]dec-1-en-2-yl)-tetradecanoic acid] | 22 |
| Cc1cc(C(=O)N(C)C)ccc1CCS(=O)(=O)N1CCC2(CC1)N=C(c1cccc(C(F)(F)F)c1C)NC2=O [Compound 111, 3,N,N-trimethyl-4-{2-[2-(2-methyl-3-trifluoromethyl-phenyl)-4-oxo-1,3,8-triaza-spiro[4.5]dec-1-ene-8-sulfonyl]-ethyl}-benzamide] | 93 |
| Cc1cc(CN2C(=O)CCC2=O)cc(C)c1CCS(=O)(=O)N1CCC2(CC1)N=C(C1CCC(C)CC1)NC2=O (stereo not shown) [Compound 782, 1-(3,5-dimethyl-4-{2-[2-(4-methyl-cyclohexyl)-4-oxo-1,3,8-triaza-spiro[4.5]dec-1-ene-8-sulfonyl]-ethyl}-benzyl)-pyrrolidine-2,5-dione] | 14 |
| Cc1cnc(C2=NC3(CCN(S(=O)(=O)CCc4ccc(C(=O)N(C)C)cc4C)CC3)C(=O)N2)cn1 [Compound 120, 3,N,N-trimethyl-4-{2-[2-(5-methyl-pyrazin-2-yl)-4-oxo-1,3,8-triaza-spiro[4.5]dec-1-ene-8-sulfonyl]-ethyl}-benzamide] | 3.1 |
| Cc1cc(N(C)C(N)=O)cc(C)c1/C=C/S(=O)(=O)N1CCC2(CC1)N=C(c1cccc(OCCCC(F)(F)F)c1)NC2=O [Compound 1019, 1-[3,5-dimethyl-4-((E)-2-{4-oxo-2-[3-(4,4,4-trifluoro-butoxy)-phenyl]-1,3,8-triaza-spiro[4.5]dec-1-ene-8-sulfonyl}-vinyl)-phenyl]-1-methyl-urea] | 72 |
| Cc1cc(NC(=O)[C@@H](N)C(C)C)cc(C)c1/C=C/S(=O)(=O)N1CCC2(CC1)N=C(C1CCCCC1)NC2=O [Compound 735, (S)-2-Amino-N-{4-[(E)-2-(2-cyclohexyl-4-oxo-1,3,8-triaza-spiro[4.5]dec-1-ene-8-sulfonyl)-vinyl]-3,5-dimethyl-phenyl}-3-methyl-butylamide] | 32 |
| CN(C)C(=O)n1ccc2c(/C=C/S(=O)(=O)N3CCC4(CC3)N=C(C3CCCCC3)NC4=O)cccc21 [Compound 189, 4-[(E)-2-(2-cyclohexyl-4-oxo-1,3,8-triaza-spiro[4.5]dec-1-ene-8-sulfonyl)-vinyl]-indole-1-carboxylic acid dimethylamide] | 54 |
| Cc1cc(N(C)C(N)=O)cc(C)c1CCS(=O)(=O)N1CCC2(CC1)N=C(C1(CCCC(F)(F)F)CC1)NC2=O [Compound 1048, 1-[3,5-Dimethyl-4-(2-{4-oxo-2-[1-(4,4,4-trifluoro-butyl)-cyclopropyl]-1,3,8-triaza-spiro[4.5]dec-1-ene-8-sulfonyl}-ethyl)-phenyl]-1-methyl-urea] | 96 |
| CC(=O)N(CCO)c1cccc(CCS(=O)(=O)N2CCC3(CC2)N=C(c2cccc(OC(F)(F)F)c2)NC3=O)c1C [Compound 327, N-(2-Hydroxy-ethyl)-N-(2-methyl-3-{2-[4-oxo-2-(3-trifluoromethoxy-phenyl)-1,3,8-triaza-spiro[4.5]dec-1-ene-8-sulfonyl]-ethyl}-phenyl)-acetamide] | 84 |
| Cc1cc(N(C)C(N)=O)cc(C)c1CCS(=O)(=O)N1CCC2(CC1)N=C(c1ccc(OCCCC(F)(F)F)cc1)NC2=O [Compound 1339, 1-[3,5-dimethyl-4-(2-{4-oxo-2-[4-(4,4,4-trifluoro-butoxy)-phenyl]-1,3,8-triaza-spiro[4.5]dec-1-ene-8-sulfonyl}-ethyl)-phenyl]-1-methyl-urea] | 86 |
